Test results taken from patent publication US11318118B1, “Methods and compositions for treating SARS-CoV-2 infection using carboxyamidotriazole orotate” (TACTICAL THERAPEUTICS INC., priority 2021, dated 2022).
Where two headings read alike, the source gives them in different places.

What was measured:
[1] = system: plasma cytokines; test: Luminex (Milliplex MAP Human Cytokine/Chemokine Magnetic Bead Panel) testing of plasma specimens from Phase I cancer patients given CTO; type: in vivo; parameters: key to VEGF plasma level / IL-15 plasma level / IL-17A plasma level / IL-1RA plasma level / IL-2 plasma level / IL-4 plasma level / IL-6 plasma level / IL-8 plasma level / IP-10 plasma level / MIP1a plasma level / RANTES plasma level / EGF plasma level / **IL-1β plasma level (second entry of the list) / **TNFα plasma level / GM-CSF plasma level / IFNγ plasma level / IL-1β plasma level (first entry of the list) / IL-12p40 plasma level / IL-12p70 plasma level / IL-13 plasma level: + increased; − decreased
Protocol: In a Phase I trial of CTO testing the safety and tolerability of CTO in cancer patients, Plasa samples were obtained from three patients after administration of different doses of CTO daily as follows: 1) NSCLC Patient 002-46 (CTO 555 mg/m2), 2) NSCLC Patient 002-50 (CTO 427 mg/m2) and 3) Ovarian Cancer Patient 002-53 (CTO 427 mg/m2) The levels of cytokines were measured by using the HCYTMAG-60K-PX30/Milliplex MAP Human Cytokine/Chemokine Magnetic Bead Panel from Milliplex, USA.
Table 1. Target Cytokines in Luminex Panel Testing of Plasma Specimens-Results
Expressed as Cytokine (+ increased) or (− decreased)

[2] = system: SARS-CoV-2 infection; type: in vivo; conditions: one patient, CTO 600 mg daily oral, on the second day
[3] = system: SARS-CoV-2; type: cell-based; conditions: Vero E6 cells
[4] = system: non-infected Vero E6 cells; conditions: read-out: EC 50 in non-infected Vero E6 cells; cell viability, Cell Titer Glo
[5] = CTO 427-555 mg/m2 daily, three cancer patients, versus baseline
[6] = CTO doses ranging from 427 mg/m2 to 555 mg/m2

NC(=O)c1nnn(Cc2cc(Cl)c(C(=O)c3ccc(Cl)cc3)c(Cl)c2)c1N.O=C(O)c1cc(=O)[nH]c(=O)[nH]1 [CTO]
**IL-1β plasma level (second entry of the list) [1, 5]: − | **TNFα plasma level [1, 5]: − | EGF plasma level [1, 5]: + | GM-CSF plasma level [1, 5]: − | IFNα2 plasma level [1, 5]: —I— | IFNγ plasma level [1, 5]: − | IL-1RA plasma level [1, 5]: − | IL-1β plasma level (first entry of the list) [1, 5]: + | IL-2 plasma level [1, 5]: − | IL-4 plasma level [1, 5]: − | IL-6 plasma level [1, 5]: − | IL-8 plasma level [1, 5]: − | IL-12p40 plasma level [1, 5]: + | IL-12p70 plasma level [1, 5]: − | IL-13 plasma level [1, 5]: − | IL-15 plasma level [1, 5]: − | IL-17A plasma level [1, 5]: − | IP-10 plasma level [1, 5]: − | MIP1a plasma level [1, 5]: − | RANTES plasma level [1, 5]: + | VEGF plasma level [1, 5]: − | levels of cytokines including EGF, IFN α2, IL-1β, IL-12p40 [1, 6]: increase | levels of several cytokines including VEGF, GM-CSF, INF-γ, IL-2, IL-12p70, IL-13, IL-15, IL-17a, IL-1RA, IL-1α, IL-2, ILl-4, IL-6, IL-8, il-10, MIP1-α. IL-1 TNF-α [1, 6]: reduction | symptoms of SARS-CoV-2 infection [2]: great improvement in most of the symptoms | body weight ([2]; had lost twelve pounds within 14 days before): remained at constant weight | IC50 ([3]; 72 hours post-inoculation, read-out: IC50, CPE assay (highest dose tested)): > 20 µM | replication of SARS-CoV-2 ([3]; CTO up to 5 μM): inhibited | IC50 ([3]; FIG. 2, read-out: IC50, cytopathic effect (CPE) for SARS-CoV-2): > 20 µM | Maximum % Inhibition, CPE for SARS-CoV-2 ([3]; recorded <20 μM concentration): 29.03% | EC50 [4]: 14.9 µM
